Results reported in ChEMBL document CHEMBL4321837, “Discovery of Potent and Orally Effective Dual Janus Kinase 2/FLT3 Inhibitors for the Treatment of Acute Myelogenous Leukemia and Myeloproliferative Neoplasms” (J Med Chem, 2019).
The source made the active and inactive calls. The rule behind the calls is not given here.

What was measured:
[1] = system: MV4-11; assay: Induction of apoptosis in human MV4-11 cells assessed as viable cells at 0.2 uM after 24 hrs by Annexin V FITC/PI staining based flow cytometry analysis (reference value: 96.3%); type: functional; conditions: MV4-11, 24 h, read-out: Activity
[2] = Half life in mouse liver microsomes; type: ADME, Microsome
[3] = system: SET-2; assay: Antiproliferative activity against human SET2 cells overexpressing JAK2 […] mutant assessed as reduction in cell growth after 72 hrs by MTT assay; type: functional, cell-based; conditions: SET-2, 72 h
[4] = system: MV4-11; assay: Induction of cell cycle arrest in human MV4-11 cells assessed as accumulation at G0/G1 phase at 0.005 uM after 24 hrs by propidium iodide staining based flow cytometry analysis (reference value: 54.49%); type: functional
[5] = molecular target: JAK3/JAK1 (Homo sapiens, UniProt P23458+P52333); assay: Inhibition of JAK1/JAK3 in human PBMC cells assessed as reduction in IL-2-induced STAT5 phosphorylation by flow cytometry; type: cell-based
[6] = Cytotoxicity against rat H9c2(2-1) cells assessed as cell viability after 72 hrs by MTT assay; type: cell-based
[7] = molecular target: Voltage-gated inwardly rectifying potassium channel KCNH2 (Homo sapiens, UniProt Q12809); assay: Inhibition of human ERG
[8] = molecular target: Receptor-type tyrosine-protein kinase FLT3 (Homo sapiens) (UniProt P36888); assay: Inhibition of human FLT3 (564 to end residues) assessed as residual activity at 100 nM using EAIYAAPFAKKK as substrate after 40 mins in presence of [gamma33P]-ATP by scintillation counting based radiometric assay relative to control
[9] = Half life in rat liver microsomes; type: ADME, Microsome
[10] = system: MV4-11; assay: Inhibition of JAK2/FLT3 ITD mutant in human MV4-11 cells assessed as reduction in STAT5 phosphorylation at 0.2 uM after 2 hrs by Western blot analysis; type: cell-based
[11] = molecular target: Cytochrome P450 2C9 (Homo sapiens, UniProt P11712); assay: Inhibition of CYP2C9 (unknown origin); type: ADME
[12] = system: MV4-11; assay: Induction of apoptosis in human MV4-11 cells assessed as necrotic cells at 0.05 uM after 24 hrs by Annexin V FITC/PI staining based flow cytometry analysis (reference value: 0.18%); type: functional
[13] = system: MV4-11; assay: Induction of cell cycle arrest in human MV4-11 cells assessed as accumulation at G2/M phase at 0.05 uM after 24 hrs by propidium iodide staining based flow cytometry analysis (reference value: 15.4%); type: functional
[14] = system: SET-2; assay: Antitumor activity against human SET2 cells overexpressing JAK2 V617F mutant xenografted in NOD/SCID mouse assessed as tumor growth inhibition at 60 mg/kg, po qd for 18 days measured every 2 days for 18 days by caliper method relative to control; type: functional; conditions: SET-2, po, read-out: TGI
[15] = system: MV4-11; assay: Induction of apoptosis in human MV4-11 cells assessed as viable cells at 0.4 uM after 24 hrs by Annexin V FITC/PI staining based flow cytometry analysis (reference value: 96.3%); type: functional; conditions: MV4-11, 24 h, read-out: Activity
[16] = system: MV4-11; assay: Induction of cell cycle arrest in human MV4-11 cells assessed as accumulation at G2/M phase at 0.01 uM after 24 hrs by propidium iodide staining based flow cytometry analysis (reference value: 15.4%); type: functional
[17] = Terminal elimination half life in Sprague-Dawley rat at 5 mg/kg, po measured up to 24 hrs by LC/MS/MS analysis; type: ADME, organism-based; conditions: in vivo, 24 h
[18] = system: MV4-11; assay: Antiproliferative activity against FLT3-ITD-positive human MV4-11 cells assessed as reduction in cell growth after 72 hrs by MTT assay; type: functional, cell-based; conditions: MV4-11, 72 h
[19] = molecular target: Cytochrome P450 2D6 (Homo sapiens, UniProt P10635); assay: Inhibition of CYP2D6 (unknown origin); type: ADME
[20] = system: MV4-11; assay: Induction of apoptosis in human MV4-11 cells assessed as early apoptotic cells at 0.2 uM after 24 hrs by Annexin V FITC/PI staining based flow cytometry analysis (reference value: 2.14%); type: functional
[21] = Oral bioavailability in Sprague-Dawley rat at 5 mg/kg measured up to 24 hrs by LC/MS/MS analysis; type: ADME, organism-based; conditions: in vivo
[22] = Toxicity in NOD/SCID mouse xenografted with FLT3-ITD-positive human MV4-11 cells assessed as animal survival at 30 to 60 mg/kg, po qd for 14 days; type: organism-based; conditions: in vivo
[23] = system: MV4-11; assay: Induction of cell cycle arrest in human MV4-11 cells assessed as accumulation at G0/G1 phase at 0.01 uM after 24 hrs by propidium iodide staining based flow cytometry analysis (reference value: 54.49%); type: functional
[24] = Intrinsic clearance in dog liver microsomes; type: ADME, Canis lupus familiaris, Microsome
[25] = system: MV4-11; assay: Induction of apoptosis in human MV4-11 cells assessed as late apoptotic cells at 0.8 uM after 24 hrs by Annexin V FITC/PI staining based flow cytometry analysis (reference value: 1.38%); type: functional
[26] = system: MV4-11; assay: Induction of apoptosis in human MV4-11 cells assessed as viable cells at 0.05 uM after 24 hrs by Annexin V FITC/PI staining based flow cytometry analysis (reference value: 96.3%); type: functional; conditions: MV4-11, 24 h, read-out: Activity
[27] = molecular target: Tyrosine-protein kinase Lyn (Homo sapiens, UniProt P07948); assay: Inhibition of recombinant full length human LYN using poly(Glu, Tyr) 4:1 as substrate incubated for 40 mins in presence of [gamma33P]-ATP by scintillation counting based radiometry assay
[28] = system: MV4-11; assay: Induction of apoptosis in human MV4-11 cells assessed as necrotic cells at 0.2 uM after 24 hrs by Annexin V FITC/PI staining based flow cytometry analysis (reference value: 0.18%); type: functional
[29] = molecular target: Cytochrome P450 3A4 (Homo sapiens, UniProt P08684); assay: Inhibition of CYP3A4 (unknown origin); type: ADME
[30] = system: MV4-11; assay: Induction of cell cycle arrest in human MV4-11 cells assessed as accumulation at S phase at 0.01 uM after 24 hrs by propidium iodide staining based flow cytometry analysis (reference value: 30.11%); type: functional
[31] = Toxicity in NOD/SCID mouse xenografted with FLT3-ITD-positive human MV4-11 cells assessed as body weight at 30 to 60 mg/kg, po qd for 14 days; type: organism-based; conditions: in vivo, 336 h
[32] = system: SET-2; assay: Antitumor activity against human SET2 cells overexpressing JAK2 V617F mutant xenografted in NOD/SCID mouse assessed as tumor growth inhibition at 30 mg/kg, po qd for 18 days measured every 2 days for 18 days by caliper method relative to control; type: functional; conditions: SET-2, po, read-out: TGI
[33] = system: MV4-11; assay: Induction of apoptosis in human MV4-11 cells assessed as viable cells at 1.6 uM after 24 hrs by Annexin V FITC/PI staining based flow cytometry analysis (reference value: 96.3%); type: functional; conditions: MV4-11, 24 h, read-out: Activity
[34] = species on record: Homo sapiens; assay: Inhibition of JAK2 V617F mutant/FLT3 in human SET2 cells assessed as reduction in STAT5 phosphorylation at 0.2 uM after 2 hrs by Western blot analysis; type: cell-based
[35] = system: MV4-11; assay: Induction of apoptosis in human MV4-11 cells assessed as late apoptotic cells at 0.2 uM after 24 hrs by Annexin V FITC/PI staining based flow cytometry analysis (reference value: 1.38%); type: functional

Chain of Tyrosine-protein kinase Lyn (P07948 whole entry): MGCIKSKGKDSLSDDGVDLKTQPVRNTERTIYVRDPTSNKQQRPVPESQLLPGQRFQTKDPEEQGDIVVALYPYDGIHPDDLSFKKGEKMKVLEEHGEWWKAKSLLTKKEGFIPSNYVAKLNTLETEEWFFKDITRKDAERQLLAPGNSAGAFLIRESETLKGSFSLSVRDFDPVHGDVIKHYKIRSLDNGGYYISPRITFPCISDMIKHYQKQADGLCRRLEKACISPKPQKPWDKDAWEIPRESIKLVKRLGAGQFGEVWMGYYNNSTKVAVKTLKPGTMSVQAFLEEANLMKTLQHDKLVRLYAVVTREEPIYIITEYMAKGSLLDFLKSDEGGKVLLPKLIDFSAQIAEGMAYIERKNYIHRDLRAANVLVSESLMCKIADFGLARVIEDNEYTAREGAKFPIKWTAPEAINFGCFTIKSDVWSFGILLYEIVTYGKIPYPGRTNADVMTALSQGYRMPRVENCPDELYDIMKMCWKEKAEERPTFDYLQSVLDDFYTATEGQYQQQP
Chain of Cytochrome P450 2C9 (P11712 whole entry): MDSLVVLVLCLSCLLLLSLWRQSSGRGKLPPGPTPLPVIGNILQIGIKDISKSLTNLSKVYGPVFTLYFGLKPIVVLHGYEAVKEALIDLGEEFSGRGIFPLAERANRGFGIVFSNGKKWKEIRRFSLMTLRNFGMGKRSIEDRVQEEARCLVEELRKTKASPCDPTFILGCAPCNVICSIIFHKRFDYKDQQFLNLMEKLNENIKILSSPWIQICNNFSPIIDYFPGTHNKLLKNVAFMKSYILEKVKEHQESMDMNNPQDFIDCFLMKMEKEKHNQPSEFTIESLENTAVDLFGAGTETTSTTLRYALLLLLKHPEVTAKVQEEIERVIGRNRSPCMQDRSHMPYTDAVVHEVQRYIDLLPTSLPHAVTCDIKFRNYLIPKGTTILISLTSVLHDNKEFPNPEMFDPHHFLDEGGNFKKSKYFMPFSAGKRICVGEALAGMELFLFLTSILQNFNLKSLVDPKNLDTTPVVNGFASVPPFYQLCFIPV
Chain of Voltage-gated inwardly rectifying potassium channel KCNH2 (Q12809 whole entry): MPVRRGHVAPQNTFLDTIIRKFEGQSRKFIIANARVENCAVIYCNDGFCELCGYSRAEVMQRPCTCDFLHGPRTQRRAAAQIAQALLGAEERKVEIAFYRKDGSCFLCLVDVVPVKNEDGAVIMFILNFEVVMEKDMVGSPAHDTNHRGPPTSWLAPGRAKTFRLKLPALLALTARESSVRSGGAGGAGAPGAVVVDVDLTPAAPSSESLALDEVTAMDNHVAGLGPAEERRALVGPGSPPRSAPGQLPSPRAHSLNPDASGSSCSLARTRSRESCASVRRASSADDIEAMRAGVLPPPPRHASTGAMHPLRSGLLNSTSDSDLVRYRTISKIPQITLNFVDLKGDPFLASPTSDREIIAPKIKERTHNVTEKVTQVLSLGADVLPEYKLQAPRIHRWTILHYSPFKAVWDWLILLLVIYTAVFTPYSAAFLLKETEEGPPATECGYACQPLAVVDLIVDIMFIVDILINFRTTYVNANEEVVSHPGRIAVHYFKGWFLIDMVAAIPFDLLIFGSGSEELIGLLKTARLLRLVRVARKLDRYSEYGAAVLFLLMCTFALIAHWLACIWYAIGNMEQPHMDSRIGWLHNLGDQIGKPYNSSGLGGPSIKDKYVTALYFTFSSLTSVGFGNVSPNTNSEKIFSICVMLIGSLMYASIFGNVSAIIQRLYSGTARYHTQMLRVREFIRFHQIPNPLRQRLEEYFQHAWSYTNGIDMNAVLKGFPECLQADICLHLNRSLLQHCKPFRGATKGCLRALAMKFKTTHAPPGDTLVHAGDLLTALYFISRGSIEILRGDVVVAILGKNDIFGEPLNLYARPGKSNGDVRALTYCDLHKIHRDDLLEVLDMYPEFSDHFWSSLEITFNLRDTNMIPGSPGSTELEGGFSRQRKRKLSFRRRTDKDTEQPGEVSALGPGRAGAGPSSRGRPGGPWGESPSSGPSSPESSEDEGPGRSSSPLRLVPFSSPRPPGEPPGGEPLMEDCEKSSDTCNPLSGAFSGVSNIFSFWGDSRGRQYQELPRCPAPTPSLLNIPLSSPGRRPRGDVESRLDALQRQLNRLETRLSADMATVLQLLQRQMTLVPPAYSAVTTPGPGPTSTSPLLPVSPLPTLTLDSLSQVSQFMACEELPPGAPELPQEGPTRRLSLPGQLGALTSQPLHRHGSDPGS
Chain of Cytochrome P450 2D6 (P10635 whole entry): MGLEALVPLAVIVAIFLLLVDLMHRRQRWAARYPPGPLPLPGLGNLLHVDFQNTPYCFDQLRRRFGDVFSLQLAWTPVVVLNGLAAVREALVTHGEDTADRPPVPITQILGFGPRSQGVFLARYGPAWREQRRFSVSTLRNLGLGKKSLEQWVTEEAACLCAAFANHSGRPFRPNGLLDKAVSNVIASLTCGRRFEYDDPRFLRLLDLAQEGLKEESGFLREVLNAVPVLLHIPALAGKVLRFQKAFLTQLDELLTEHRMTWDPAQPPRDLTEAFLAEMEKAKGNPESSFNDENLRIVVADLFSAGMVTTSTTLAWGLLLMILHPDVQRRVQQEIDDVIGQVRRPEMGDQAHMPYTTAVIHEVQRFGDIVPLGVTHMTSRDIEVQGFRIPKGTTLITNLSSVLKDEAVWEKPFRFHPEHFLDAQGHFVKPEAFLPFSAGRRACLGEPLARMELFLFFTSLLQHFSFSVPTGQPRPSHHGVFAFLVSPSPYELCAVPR
Chain of Receptor-type tyrosine-protein kinase FLT3 (Homo sapiens) (P36888 whole entry): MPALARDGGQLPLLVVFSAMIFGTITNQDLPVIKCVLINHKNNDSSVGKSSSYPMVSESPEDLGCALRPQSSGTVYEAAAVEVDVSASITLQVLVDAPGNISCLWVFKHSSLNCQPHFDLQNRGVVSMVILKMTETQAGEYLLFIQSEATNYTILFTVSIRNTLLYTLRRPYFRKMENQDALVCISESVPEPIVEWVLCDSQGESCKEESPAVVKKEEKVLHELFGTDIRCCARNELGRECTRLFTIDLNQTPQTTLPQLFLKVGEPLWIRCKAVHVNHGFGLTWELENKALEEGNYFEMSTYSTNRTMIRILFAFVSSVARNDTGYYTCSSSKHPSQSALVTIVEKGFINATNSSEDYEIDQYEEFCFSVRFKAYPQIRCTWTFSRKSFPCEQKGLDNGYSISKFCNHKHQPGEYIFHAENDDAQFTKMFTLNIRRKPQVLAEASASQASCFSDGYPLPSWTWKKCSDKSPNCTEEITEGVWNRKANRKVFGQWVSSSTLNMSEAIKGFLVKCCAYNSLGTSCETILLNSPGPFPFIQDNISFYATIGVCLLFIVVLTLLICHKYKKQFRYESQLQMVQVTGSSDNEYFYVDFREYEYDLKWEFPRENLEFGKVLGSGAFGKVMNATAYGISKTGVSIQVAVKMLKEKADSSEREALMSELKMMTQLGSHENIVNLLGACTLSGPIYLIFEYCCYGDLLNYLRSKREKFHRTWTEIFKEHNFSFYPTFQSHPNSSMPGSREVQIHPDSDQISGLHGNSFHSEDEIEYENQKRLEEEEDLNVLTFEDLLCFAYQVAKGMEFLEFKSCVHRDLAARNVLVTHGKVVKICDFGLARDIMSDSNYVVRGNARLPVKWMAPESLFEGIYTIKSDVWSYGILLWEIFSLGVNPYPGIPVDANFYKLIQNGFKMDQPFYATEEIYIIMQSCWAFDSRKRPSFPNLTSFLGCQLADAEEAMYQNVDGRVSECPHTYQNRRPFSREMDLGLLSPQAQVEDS
Chain of Cytochrome P450 3A4 (P08684 whole entry): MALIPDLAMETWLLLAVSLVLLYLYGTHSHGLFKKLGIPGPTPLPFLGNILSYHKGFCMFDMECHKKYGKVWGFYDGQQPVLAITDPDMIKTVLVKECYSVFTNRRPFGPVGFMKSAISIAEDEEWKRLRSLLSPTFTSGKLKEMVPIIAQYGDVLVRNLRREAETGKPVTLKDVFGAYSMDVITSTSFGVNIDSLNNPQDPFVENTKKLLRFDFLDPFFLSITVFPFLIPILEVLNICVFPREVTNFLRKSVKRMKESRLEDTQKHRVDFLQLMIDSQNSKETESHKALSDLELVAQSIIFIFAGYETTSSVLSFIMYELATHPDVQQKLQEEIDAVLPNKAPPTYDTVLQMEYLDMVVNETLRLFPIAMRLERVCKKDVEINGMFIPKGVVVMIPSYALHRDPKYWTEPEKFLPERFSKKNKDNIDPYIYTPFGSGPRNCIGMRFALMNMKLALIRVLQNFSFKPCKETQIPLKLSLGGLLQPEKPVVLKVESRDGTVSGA

SMILES: Cc1cnc(Nc2ccc(N3CCC(N(C)CCO)CC3)c(F)c2)nc1-c1cnn(C(C)C)c1
- viability at 0.2 µM [1]: 77.4%
- half-life [2]: 6.42 h
- IC50 [3]: 270 nM
- Activity [4]: 55.92%
- IC50 [5]: 112 nM
- Activity [6]: Non-Toxic
- IC50 [7]: 28000 nM
- Activity [8]: 4%
- half-life [9]: 12.8 h
- inhibition [10]: Active
- IC50 [11]: 78100 nM
- Activity [12]: 0.29%
- Activity [13]: 5.51%
- inhibition in vivo at 60 mg/kg [14]: 85%
- viability at 0.4 µM [15]: 51.2%
- Activity [16]: 11.8%
- beta t1/2 [17]: 4.1 h
- IC50 [18]: 5.3 nM
- IC50 [19]: > 100000 nM
- Activity [20]: 11.9%
- bioavailability [21]: 58%
- survival at 336 h [22]: 100%
- Activity [23]: 58.55%
- CLH [24]: 3.7 µL/min/mg
- Activity [25]: 29.3%
- viability at 0.05 µM [26]: 89.6%
- IC50 [27]: 17 nM
- Activity [28]: 0.75%
- IC50 [29]: > 100000 nM
- Activity [30]: 29.65%
- Activity [31]: Non-Toxic
- inhibition in vivo at 30 mg/kg [32]: 66%
- viability at 1.6 µM [33]: 24.9%
- inhibition [34]: Active
- Activity [35]: 9.88%
